Reference: patent US12161631B2, “Liquid pharmaceutical formulation” (PROJECT PHARMACEUTICS GMBH, priority 2018, dated 2024)
Where two headings read alike, the source gives them in different places.

Columns and labels:
[1] = formulation CaCl2 99.9 mg | PG ad 1000 mg
Description: The purity of Bendamustine hydrochloride and quantity was determined as follows using a standard curve: • Column type: C18, 100×4.6 mm, 2.6 μm • Mobile phase: A: Water/ACN/TFA=950/50/1 v/v/v • B: Water/ACN/TFA=50/950/1 v/v/v • Column temperature: 25° C. • Autosampler temperature: 25° C. • Flow rate: 1.2 mL/min • Detection wavelength: 234 nm HPLC Gradient
To serve as a direct reference, Bendamustine-HCl was also included in the study.
The following compositions were prepared, filled into type 1 glass vials, closed with a rubber stopper and crimp caped. The closed vials were stored at a temperature of 40° C.
At defined time points samples were taken and analyzed be mans of the RP-HPLC method described in Example 1.

[2] = Stabilizer solubility study (Example 2); format: physicochemical; conditions: dissolved at 40° C., stored at 2° C.-5° C. over-night
Description: The solubility of potential stabilizers to be tested for Bendamustine-HCl liquid formulation was evaluated in polypropylene glycol. The respective chemical was dissolved in water under continuous stirring at 40° C.

[3] = Dose dependent stabilization effect of calcium chloride in PEG400 (Example 8), purity and content by RP-HPLC; conditions: PEG400/PG and PEG400/ethanol solvent mixtures; 40° C., 8 weeks
Description: The organic solvent systems PEG400 with a small amount of alcoholic solvents 1,2-propanediol or ethanol (10% w/w) are to be investigated.
The following Bendamustine containing compositions were prepared. […] The preparations were filled into type 1 glass vials and stoppered with nitrogen overlay. The closed vials were stored at 40° C.:
The purity of Bendamustine-HCl was assessed via RP-HPLC and expressed by relative main peak area. Measurements were carried out in duplicate.
The content of Bendamustine-HCl was assessed via RP-HPLC using a 25 mg/g Bendamustine-HCl standard as reference. Standard solutions were freshly prepared for each individual sampling time point. Standard curves were recorded in duplicate at the beginning and at the end of each sequence. Samples were analyzed in duplicate.

[4] = format: physicochemical; conditions: in propylene glycol and in PEG400/PG solvent mixture
Description: The following Bendamustine containing compositions (25 mg Bendamustine/HCl in 4 g solution) were prepared, filled into type 1 glass vials.

SMILES	Purity at 40° C. as relative main peak area [%] by RP-HPLC ([1]; 0 days) [%]	Purity at 40° C. as relative main peak area [%] by RP-HPLC ([1]; 7 days) [%]	Purity at 40° C. as relative main peak area [%] by RP-HPLC ([1]; 14 days) [%]	Purity at 40° C. as relative main peak area [%] by RP-HPLC ([1]; 28 days) [%]	Rel. content at 40° C. determined by RP-HPLC using a calibration curve ([1]; 0 days (ref. T=0)) [%]	Rel. content at 40° C. determined by RP-HPLC using a calibration curve ([1]; 7 days (ref. T=0)) [%]	Rel. content at 40° C. determined by RP-HPLC using a calibration curve ([1]; 14 days (ref. T=0)) [%]	Rel. content at 40° C. determined by RP-HPLC using a calibration curve ([1]; 28 days (ref. T=0)) [%]	further results
Nc1ncn([C@@H]2O[C@H](CO)[C@@H](O)[C@H]2O)c(=O)n1 [Azacitidine]	100	99.8	97.7	0.0	–	–	–	–	–
Cn1c(CCCC(=O)O)nc2cc(N(CCCl)CCCl)ccc21 [Bendamustine]	99.7	98.9	98.4	–	100	98.9	98.4	95.3	–
[Br-].[Br-].[Ca+2] [CaBr2]	–	–	–	–	–	–	–	–	Outcome (stabilizer solubility) ([2]; target concentration 0.9 mol/kg): Complete dissolution
[Ca+2].[Cl-].[Cl-] [CaCl2, calcium chloride]	–	–	–	–	–	–	–	–	stabilizing effect on Bendamustine (discussion, in words) [3]: clear dose depending stabilizing effect
O=NN(CCCl)C(=O)NCCCl [Carmustine]	95.8	2.1	2.0	1.9	100	3.6	1.3	1.3	–
C[N+](C)(C)CCO.[Cl-] [Choline-HCl, choline chloride]	–	–	–	–	–	–	–	–	Outcome (stabilizer solubility) ([2]; target concentration 1.8 mol/kg): Complete dissolution
CC(=O)[O-].[K+] [KAc]	–	–	–	–	–	–	–	–	stabilizing effect on Bendamustine (conclusion) [4]: no significant stabilizing effect
N[C@@H](Cc1ccc(N(CCCl)CCCl)cc1)C(=O)O [Melphalan]	99.8	98.1	97.4	95.4	100	84.6	86.2	86.5	–
